Assays:
[1] = system: bronchoconstricting effects of a standard dose of acetylcholine; experiment: Bronchodilation by aerosol inhalation (method of Rosenthale et al.): inhibition of the bronchoconstricting effects of a standard dose of acetylcholine; format: in vivo; settings: guinea pig
Source text: In using the compounds of the invention to produce bronchodilating effects in warm-blooded animals, they may be administered in a variety of dosage forms: oral, injectable, and aerosol inhalation. Aerosol inhalation is a preferred method because of its rapid onset of action, great potency, and specificity of action. The particular dosage to obtain the bronchodilating effect will vary with the particular compound employed, the particular animal involved, and the degree of bronchodilation desired. In the guinea pig, by aerosol inhalation, the dose to produce bronchodilation is from about 1.5 micrograms to about 100 micrograms, and preferably from about 1.5 to about 50 micrograms. The bronchodilation produced upon aerosol inhalation can be observed by the method of Rosenthale et al., J. Pharmacol. Exp. Ther., 178, 541 (1971). Using this procedure the following result was obtained.

[2] = Hypotension in the anesthetized dog, intravenous route; format: in vivo; settings: dose 100 μg/kg
Method: Thus in the anesthetized dog by the intravenous route the dose to produce hypotension is from about 1 μg/kg. to about 200 μg/kg. and preferably from about 10 μg/kg. to about 100 μg/kg. Using this procedure the following results were obtained.

[3] = system: ADP induced platelet aggregation (human platelet rich plasma); experiment: ADP induced platelet aggregation in platelet rich plasma (modification of Born and Cross); format: cell-based; settings: human PRP, in vitro; for IC50: Platelet, ADP induced (2 to 4 μM ADP), read-out: Concentration which inhibits 50% of platelet aggregation
Method: Platelet aggregation is the initial step in thrombus formation and it is considered that compounds which prevent aggregation or reduce platelet adhesiveness may inhibit the initiation of the arteriosclerotic process. The effect of drugs on aggregation is measured in platelet rich plasma (PRP) containing adenosine diphosphate (ADP) which markedly increases aggregation in vitro and may be a physiological agent for doing so in vivo.
Human blood is collected from fasted normal blood donors in siliconized 50 ml. Vacutainers that contain 3.8% sodium citrate. Centrifugation at 500 G. for 3 minutes at 5° C. separates the red blood cells from the PRP. The supernatant PRP is pipetted off and the remainder is centrifuged at 1000 G. for 10 minutes at 25° C. to obtain platelet poor plasma for standardization of the automated Payton aggregometer. In the running of the platelet aggregation test a cell containing 1.0 ml. of PRP is stirred at 1,100 rpm and the test compound is added in 0.2 ml. of buffered saline to give an initial concentration of 5 × 10^-^3 M, or 5 × 10^-^4 M. After 3 minutes, a concentration of ADP predetermined to yield marked platelet aggregation (2 to 4 μM) is added in 0.1 ml. of buffered saline. The curve of light transmission at 610 mμ is followed for 6 minutes. Compounds found to be active at the initial concentration are run at lower concentrations. The results are expressed as the concentration which gives 50% inhibition of the ADP induced aggregation.

Structure (SMILES)	Percent Inhibition of the bronchoconstricting effects of a standard dose of acetylcholine ([1]; dose 1.5 μg)	Δb.p. [2]	IC50 [3]	Inhibition of ADP induced platelet aggregation (at concentration) ([3]; at 1.5 × 10^-^6 M)	Percent Inhibition of the bronchoconstricting effects of a standard dose of acetylcholine ([1]; dose 15 μg)	Inhibition of ADP induced platelet aggregation (at concentration) ([3]; at 2.6 × 10^-^6 M)
CCCCC[C@H](O)/C=C/[C@H]1[C@H](O)C=C[C@@H]1CCCCCCC(=O)O [4α-hydroxy-5β-[(3S)-3-hydroxy-trans-1-octenyl]-2-cyclopentene-1α-heptanoic acid]	60%	-34 mm. Hg	1200 nM	63%		
CCCCC[C@H](O)/C=C/[C@H]1[C@H](O)C=C[C@@H]1C/C=C\CCCC(=O)O [7-(4α-hydroxy-5β-[(3S)-3-hydroxy-trans-1-octenyl]-2-cyclopenten-1α-yl)-cis-5-heptenoic acid]			2600 nM		44%	50%

— US3933904A, “11,15-Dihydroxy-9,13-prostadienoic acid” (American Home Products Corporation, priority 1974, dated 1976)
